The subject of test [1] is BEAS-2B cells. The experiment in a line: TNFα-stimulated BEAS-2B IL-8 release assay. The test is classed as cell-based. The following applies: Homo sapiens, IC50 classes, TNF-α 10 ng/ml, 18 h, read-out: TNFα-stimulated BEAS-2B IL-8 release inhibition. In a few lines:
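BEAS-2B cells at 80-90% confluence were pre-incubated 1 h with p38 inhibitors, then stimulated 18 h at 37 °C with TNF-α (10 ng/ml). Supernatant IL-8 was measured by ELISA. IC50 was taken from sigmoidal variable-slope fits of % inhibition of control release.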

Test [2] deals with T1, p38alpha (Homo sapiens, UniProt Q16539).
T1 construct: purchased Invitrogen PV3304
T1 sequence (Q16539 whole entry): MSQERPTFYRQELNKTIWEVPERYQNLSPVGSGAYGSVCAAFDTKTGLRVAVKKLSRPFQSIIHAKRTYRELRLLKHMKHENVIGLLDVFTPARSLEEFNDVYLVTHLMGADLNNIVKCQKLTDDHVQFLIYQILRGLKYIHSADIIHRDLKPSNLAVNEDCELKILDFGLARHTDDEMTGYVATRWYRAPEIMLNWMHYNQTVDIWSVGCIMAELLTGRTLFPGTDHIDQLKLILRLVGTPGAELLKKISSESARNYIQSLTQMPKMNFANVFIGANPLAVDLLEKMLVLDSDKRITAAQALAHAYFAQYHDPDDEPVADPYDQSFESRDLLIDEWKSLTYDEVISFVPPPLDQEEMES
The experiment in a line: P38alpha enzyme inhibition assay (Alphascreen kinase activity assay). The test is classed as biochemical. The following applies: IC50 classes; 2 hours preincubation at 25° C., 250 μM ATP; read-out: p38α inhibition. In a few lines:
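p38alpha with 0.3 μg/ml ATF-2 fusion protein in HEPES pH 7.5 buffer (10 mM MgCl2, 2 mM DTT, 1% DMSO); compounds preincubated 2 h at 25° C, then 250 μM ATP added for 1 h at 25° C. Phospho-ATF2 detected by AlphaScreen luminescence with anti-phospho-ATF2 antibody; IC50 from concentration-response curves.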
A general note: In Alpha technology, singlet oxygen from a donor bead excites a nearby acceptor bead.

In test [3] the test system is Peripheral Blood Mononuclear Cells (PBMCs). Description: LPS-stimulated PBMC TNFα release assay. The test is classed as cell-based. Particulars: IC50 classes; human PBMC, LPS 10 ng/ml, 18 h; read-out: LPS-stimulated PBMC TNFα release inhibition. In a few lines: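 Human PBMCs from healthy donors, adhered 3 h in serum-free RPMI, received compound for 1 h in 1% FBS medium before 10 ng/ml LPS for 18 h. Supernatant TNFα was measured by MSD; IC50 from percentage inhibition of control release, at least three separate experiments.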

These results are taken from patent US10100050B2 (CHIESI FARMACEUTICI S.P.A., priority 2015, dated 2018).

Where a name gives a salt, the structure may show the parent alone. A value given as a limit tells only on which side of the number the result lay.

Take `C[C@H]1CCCCN1c1nnc2ccc(O[C@@H]3CC[C@H](NC(=O)Nc4cc(CN(CCO)CCO)cc(C(C)(C)C)c4)c4ccccc43)cn12` [Example 76, 1-(3-{[Bis-(2-hydroxy-ethyl)-amino]-methyl}-5-tert-butyl-phenyl)-3-{(1S,4R)-4-[3-((S)-2-methyl-piperidin-1-yl)-[1,2,4]triazolo[4,3-a]pyridin-6-yloxy]-1,2,3,4-tetrahydro-naphthalen-1-yl}-urea]: the IC50 in test [1] is > 1 nM; in test [2] it was < 1 nM; in test [3], 1 to 5 nM.
On to `CN1CCC[C@@]1(C)c1nnc2ccc(O[C@@H]3CC[C@H](NC(=O)Nc4cc(N5CCNCC5)cc(C(C)(C)C)c4)c4ccccc43)cn12` [Example 64, 1-(3-tert-Butyl-5-piperazin-1-yl-phenyl)-3-{(1S,4R)-4-[3-((S)-1,2-dimethyl-pyrrolidin-2-yl)-[1,2,4]triazolo[4,3-a]pyridin-6-yloxy]-1,2,3,4-tetrahydro-naphthalen-1-yl}-urea], for which the IC50 in test [1] is > 1 nM; in test [2], < 1 nM; in test [3], > 5 nM.
For `COCCS(=O)(=O)Nc1cc(C(C)(C)C)cc(NC(=O)N[C@H]2CC[C@@H](Oc3ccc4nnc(C(C)(C)N(C)C)n4c3)c3ccccc32)c1OC` [Example 15, 2-Methoxy-ethanesulfonic acid [5-tert-butyl-3-(3-{(1S,4R)-4-[3(1-dimethylamino-1-methyl-ethyl)-[1,2,4]triazolo[4,3-a]pyridin-6-yloxy]-1,2,3,4-tetrahydro-naphthalen-1-yl}-ureido)-2-methoxy-phenyl]-amide hydrochloride salt], in that order: < 0.3 nM, 1 to 10 nM and < 1 nM.
For `CN1CCC[C@@]1(CO)c1nnc2ccc(O[C@@H]3CC[C@H](NC(=O)Nc4cc(NS(C)(=O)=O)cc(C(C)(C)C)c4)c4ccccc43)cn12` [Example 33], in that order: 0.3 to 1 nM, < 1 nM and < 1 nM.
The matching figures for `COc1c(NC(=O)N[C@H]2CC[C@@H](Oc3ccc4nnc(C(C)(C)N(C)C)n4c3)c3ccccc32)cc(C(C)(C)C)cc1NS(=O)(=O)C1CC1` [Example 14, Cyclopropanesulfonic acid [5-tert-butyl-3-(3-{(1S,4R)-4-[3(1-dimethylamino-1-methyl-ethyl)-[1,2,4]triazolo[4,3-a]pyridin-6-yloxy]-1,2,3,4-tetrahydro-naphthalen-1-yl}-ureido)-2-methoxy-phenyl]-amide partial formate salt]: < 0.3 nM, 1 to 10 nM and < 1 nM.
On to `CN1CCC[C@@]1(C)c1nnc2ccc(O[C@@H]3CC[C@H](NC(=O)Nc4cc(CO)cc(C(C)(C)C)c4)c4ccccc43)cn12` [Example 49, 1-(3-tert-Butyl-5-hydroxymethyl-phenyl)-3-{(1S,4R)-4-[3-((S)-1,2-dimethyl-pyrrolidin-2-yl)-[1,2,4]triazolo[4,3-a]pyridin-6-yloxy]-1,2,3,4-tetrahydro-naphthalen-1-yl}-urea], for which the IC50 was < 0.3 nM in test [1], < 1 nM in test [2] and < 1 nM in test [3].
As for `C[C@H]1CCCCN1c1nnc2ccc(O[C@@H]3CC[C@H](NC(=O)Nc4cc(C(C)(C)C)ccc4CN4CCOCC4)c4ccccc43)cn12` [Example 74, 1-(5-tert-Butyl-2-morpholin-4-ylmethyl-phenyl)-3-{(1S,4R)-4-[3-((S)-2-methyl-piperidin-1-yl)-[1,2,4]triazolo[4,3-a]pyridin-6-yloxy]-1,2,3,4-tetrahydro-naphthalen-1-yl}-urea], the IC50 in test [1] was 0.3 to 1 nM; in test [2] it was 1 to 10 nM; in test [3] it was > 5 nM.
For the compound `CN1CCC[C@@]1(C)c1nnc2ccc(O[C@@H]3CC[C@H](NC(=O)Nc4cc(CS(C)(=O)=O)cc(C(C)(C)C)c4)c4ccccc43)cn12` [Example 42, 1-(3-tert-Butyl-5-methanesulfonylmethyl-phenyl)-3-{(1S,4R)-4-[3-((S)-1,2-dimethyl-pyrrolidin-2-yl)-[1,2,4]triazolo[4,3-a]pyridin-6-yloxy]-1,2,3,4-tetrahydro-naphthalen-1-yl}-urea], the IC50 was < 0.3 nM in test [1], < 1 nM in test [2] and < 1 nM in test [3].
In the case of `CC(=O)OCc1cc(NC(=O)N[C@H]2CC[C@@H](Oc3ccc4nnc([C@@H]5CCCN5C)n4c3)c3ccccc32)cc(C(C)(C)C)c1` [Example 43, Acetic acid 3-tert-butyl-5-(3-{(1S,4R)-4-[3-((S)-1-methyl-pyrrolidin-2-yl)-[1,2,4]triazolo[4,3-a]pyridin-6-yloxy]-1,2,3,4-tetrahydro-naphthalen-1-yl}-ureido)-benzyl ester], the IC50 is < 0.3 nM in test [1], < 1 nM in test [2] and 1 to 5 nM in test [3].
For `CN(C)Cc1cc(NC(=O)N[C@H]2CC[C@@H](Oc3ccc4nnc([C@]5(C)CCCN5C)n4c3)c3ccccc32)cc(C(C)(C)C)c1` [Example 65, 1-(3-tert-Butyl-5-dimethylaminomethyl-phenyl)-3-{(1S,4R)-4-[3-((S)-1,2-dimethyl-pyrrolidin-2-yl)-[1,2,4]triazolo[4,3-a]pyridin-6-yloxy]-1,2,3,4-tetrahydro-naphthalen-1-yl}-urea], the IC50 was 0.3 to 1 nM in test [1], < 1 nM in test [2] and 1 to 5 nM in test [3].
As for `CN1CCC[C@@]1(C)c1nnc2ccc(O[C@@H]3CC[C@H](NC(=O)Nc4cc(C(C)(C)C)ccc4CN4CCOCC4)c4ccccc43)cn12` [Example 73, 1-(5-tert-Butyl-2-morpholin-4-ylmethyl-phenyl)-3-{(1S,4R)-4-[3-((S)-1,2-dimethyl-pyrrolidin-2-yl)-[1,2,4]triazolo[4,3-a]pyridin-6-yloxy]-1,2,3,4-tetrahydro-naphthalen-1-yl}-urea], the IC50 in test [1] is 0.3 to 1 nM; in test [2], 1 to 10 nM; in test [3], > 5 nM.
The matching figures for `Cc1c(NC(=O)N[C@H]2CC[C@@H](Oc3ccc4nnc([C@@H]5CCCN5C)n4c3)c3ccccc32)cc(C(C)(C)C)cc1NS(C)(=O)=O` [Example 57, N-[5-tert-Butyl-2-methyl-3-(3-{(1S,4R)-4-[3-((S)-1-methyl-pyrrolidin-2-yl)-[1,2,4]triazolo[4,3,a]pyridin-6-yloxy]-1,2,3,4-tetrahydro-naphthalen-1-yl}-ureido)-phenyl]-methanesulfonamide]: > 1 nM, < 1 nM and 1 to 5 nM.
Turning to `CN1CCC[C@@]1(C)c1nnc2ccc(O[C@@H]3CC[C@H](NC(=O)Nc4cc(NS(=O)(=O)C5CC5)cc(C(C)(C)C)c4)c4ccccc43)cn12` [Example 37, Cyclopropanesulfonic acid [3-tert-butyl-5-(3-{(1S,4R)-4-[3-((S)-1,2-dimethyl-pyrrolidin-2-yl)-[1,2,4]triazolo[4,3-a]pyridin-6-yloxy]-1,2,3,4-tetrahydro-naphthalen-1-yl}-ureido)-phenyl]-amide], the IC50 in test [1] is < 0.3 nM; in test [2], 1 to 10 nM; in test [3], < 1 nM.
`Cc1c(NC(=O)N[C@H]2CC[C@@H](Oc3ccc4nnc([C@]5(C)CCCN5C)n4c3)c3ccccc32)cc(C(C)(C)C)cc1NS(C)(=O)=O` [Example 56, N-[5-tert-Butyl-3-(3-{(1S,4R)-4-[3-((S)-1,2-dimethyl-pyrrolidin-2-yl)-[1,2,4]triazolo[4,3-a]pyridin-6-yloxy]-1,2,3,4-tetrahydro-naphthalen-1-yl}-ureido)-2-methyl-phenyl]-methanesulfonamide]: the IC50 in test [1] was < 0.3 nM; in test [2] it was < 1 nM; in test [3], < 1 nM.
In the case of `CNC(=O)c1cc(C(C)(C)C)cc(NC(=O)N[C@H]2CC[C@@H](Oc3ccc4nnc([C@@H]5CCCN5C)n4c3)c3ccccc32)c1OC` [Example 7, 5-tert-Butyl-2-methoxy-N-methyl-3-(3-{(1S,4R)-4-[3-((S)-1-methyl-pyrrolidin-2-yl)-[1,2,4]triazolo[4,3-a]pyridin-6-yloxy]-1,2,3,4-tetrahydro-naphthalen-1-yl}-ureido)-benzamide hydrochloride salt], the values for the IC50 in test [1], in test [2] and in test [3] were 0.3 to 1 nM, < 1 nM and < 1 nM, respectively.
Regarding `CN1CCC[C@H]1c1nnc2ccc(O[C@@H]3CC[C@H](NC(=O)Nc4cc(NS(=O)(=O)C5CC5)cc(C(C)(C)C)c4)c4ccccc43)cn12` [Example 36, Cyclopropanesulfonic acid [3-tert-butyl-5-(3-{(1S,4R)-4-[3-((S)-1-methyl-pyrrolidin-2-yl)-[1,2,4]triazolo[4,3-a]pyridin-6-yloxy]-1,2,3,4-tetrahydro-naphthalen-1-yl}-ureido)-phenyl]-amide], the IC50 in test [1] was 0.3 to 1 nM; in test [2] it was < 1 nM; in test [3], 1 to 5 nM.
For `CNS(=O)(=O)c1cc(NC(=O)N[C@H]2CC[C@@H](Oc3ccc4nnc([C@]5(C)CCCN5C)n4c3)c3ccccc32)cc(C(C)(C)C)c1` [Example 39, 3-tert-Butyl-5-(3-{(1S,4R)-4-[3-((S)-1,2-dimethyl-pyrrolidin-2-yl)-[1,2,4]triazolo[4,3-a]pyridin-6-yloxy]-1,2,3,4-tetrahydro-naphthalen-1-yl}-ureido)-N-methyl-benzenesulfonamide], in that order: < 0.3 nM, < 1 nM and < 1 nM.
